Key:
PIM1 = PIM1 (Homo sapiens, UniProt P11309); experiment: KinaseGlo Pim1 ATP depletion assay; type: biochemical
Method: KinaseGlo Pim1 ATP Depletion Assay
The activity of PIM1 is measured using a luciferase-luciferin based ATP detection reagent to quantify ATP depletion resulting from kinase-catalyzed phosphoryl transfer to a peptide substrate. Compounds to be tested are dissolved in 100% DMSO and directly distributed into white 384-well plates at 0.5 μA per well. To start the reaction, 10 μA of 5 nM Pim1 kinase and 80 μM BAD peptide (RSRHSSYPAGT-OH) in assay buffer (50 mM HEPES pH 7.5, 5 mM MgCl2, 1 mM DTT, 0.05% BSA) is added into each well. After 15 minutes, 10 μl of 40 μM ATP in assay buffer is added. Final assay concentrations are 2.5 nM PIM1, 20 μM ATP, 40 μM BAD peptide and 2.5% DMSO. The reaction is performed until approximately 50% of the ATP is depleted, then stopped with the addition of 20 μA KinaseGlo Plus (Promega Corporation) solution. The stopped reaction is incubated for 10 minutes and the remaining ATP detected via luminescence on the Victor2 (Perkin Elmer). […] IC50, the half maximal inhibitory concentration, represents the concentration of a test compound that is required for 50% inhibition of its target in vitro.

PIM2 = PIM2 (Homo sapiens, UniProt Q9P1W9); experiment: KinaseGlo Pim2 ATP depletion assay; type: biochemical
Method: KinaseGlo Pim2 ATP Depletion Assay
The activity of PIM2 is measured using a luciferase-luciferin based ATP detection reagent to quantify ATP depletion resulting from kinase-catalyzed phosphoryl transfer to a peptide substrate. Compounds to be tested are dissolved in 100% DMSO and directly distributed into white 384-well plates at 0.5 piper well. To start the reaction, 10 μl of 10 nM Pim2 kinase and 20 μM BAD peptide (RSRHSSYPAGT-OH) in assay buffer (50 mM HEPES pH 7.5, 5 mM MgCl2, 1 mM DTT, 0.05% BSA) is added into each well. After 15 minutes, 10 μl of 8 μM ATP in assay buffer is added. Final assay concentrations are 5 nM PIM2, 4 μM ATP, 10 μM BAD peptide and 2.5% DMSO. The reaction is performed until approximately 50% of the ATP is depleted, then stopped with the addition of 20 μl KinaseGlo Plus (Promega Corporation) solution. The stopped reaction is incubated for 10 minutes and the remaining ATP detected via luminescence on the Victor2 (Perkin Elmer).

PIM3 = PIM3 (Homo sapiens, UniProt Q86V86); experiment: KinaseGlo Pim3 ATP depletion assay; type: biochemical
Method: KinaseGlo Pim3 ATP Depletion Assay
The activity of PIM3 is measured using a luciferase-luciferin based ATP detection reagent to quantify ATP depletion resulting from kinase-catalyzed phosphoryl transfer to a peptide substrate. Compounds to be tested are dissolved in 100% DMSO and directly distributed into white 384-well plates at 0.5 μl per well. To start the reaction, 10 μl of 10 nM Pim3 kinase and 200 μM BAD peptide (RSRHSSYPAGT-OH) in assay buffer (50 mM HEPES pH 7.5, 5 mM MgCl2, 1 mM DTT, 0.05% BSA) is added into each well. After 15 minutes, 10 μl of 80 μM ATP in assay buffer is added. Final assay concentrations are 5 nM […], 40 μM ATP, 100 μM BAD peptide and 2.5% DMSO. The reaction is performed until approximately 50% of the ATP is depleted, then stopped by the addition of 20 μl KinaseGlo Plus (Promega Corporation) solution. The stopped reaction is incubated for 10 minutes and the remaining ATP detected via luminescence on the Victor2 (Perkin Elmer).

GSK3β = GSK3β (Homo sapiens, UniProt P49841); experiment: GSK3β ATP depletion assay; type: biochemical; details: read-out: GSK3b IC50
Method: GSK3β ATP Depletion Assay
The activity of GSK3β is measured using a luciferase-luciferin based ATP detection reagent to quantify ATP depletion resulting from kinase-catalyzed phosphoryl transfer to a peptide substrate. Compounds to be tested are dissolved in 100% DMSO and directly distributed into white 384-well plates at 0.5 μl per well. To start the reaction, 10 μl of 10 nM GSK3B kinase and 20 μM biotinylated CREB peptide ([…](pS)YR-NH2) in assay buffer (50 mM TRIS pH 7.5, 15 mM MgCl2, 1 mM DTT, 0.1% BSA) is added into each well. After 15 minutes, 10 μl of 2 μM ATP in assay buffer is added. Final assay concentrations are 5 nM GSK3B, […], 10 μM b-CREB peptide and 2.5% DMSO. The reaction is performed until approximately 50% of the ATP is depleted, then stopped with the addition of 20 μl KinaseGlo (Promega Corporation) solution. The stopped reaction is incubated for 10 minutes and the remaining ATP is detected via luminescence on the Victor2 (Perkin Elmer).

[1] = test system: KMS11 (human myeloma cell line); experiment: Cell proliferation assay (CellTiter-Glo), KMS11; type: cell-based; details: Homo sapiens, KMS-11; KMS11-Luc cells
Method: KMS11 (human myeloma cell line), were cultured in IMDM supplemented with 10% FBS, sodium pyruvate and antibiotics. Cells were plated in the same medium at a density of 2000 cells per well into 96 well tissue culture plates, with outside wells vacant, on the day of assay. MMl.s (human myeloma cell line), were cultured in RPMI1640 supplemented with 10% FBS, sodium pyruvate and antibiotics. Cells were plated in the same medium at a density of 5000 cells per well into 96 well tissue culture plates, with outside wells vacant, on the day of assay.
Test compounds supplied in DMSO were diluted into DMSO at 500 times the desired final concentrations before dilution into culture media to 2 times final concentrations. Equal volumes of 2× compounds were added to the cells in 96 well plates and incubated at 37° C. for 3 days.
After 3 days plates were equilibrated to room temperature and equal volume of CellTiter-Glow Reagent (Promega) was added to the culture wells. The plates were agitated briefly and luminescent signal was measured with luminometer.
Using the procedures of Cell Proliferation Assay, the EC50 concentration of indicated compounds of the examples in were determined in KMS11 cells as shown in Table 4.

Chain of PIM2 (Q9P1W9 whole entry): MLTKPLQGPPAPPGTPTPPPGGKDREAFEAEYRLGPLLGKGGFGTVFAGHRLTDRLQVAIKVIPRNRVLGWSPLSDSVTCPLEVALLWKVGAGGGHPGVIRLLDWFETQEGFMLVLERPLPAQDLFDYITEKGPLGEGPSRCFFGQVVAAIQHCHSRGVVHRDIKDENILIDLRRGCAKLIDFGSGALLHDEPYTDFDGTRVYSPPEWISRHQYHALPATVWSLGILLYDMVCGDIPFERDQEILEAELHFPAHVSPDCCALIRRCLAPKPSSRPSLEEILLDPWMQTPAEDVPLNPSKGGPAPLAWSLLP
Chain of PIM1 (P11309 whole entry): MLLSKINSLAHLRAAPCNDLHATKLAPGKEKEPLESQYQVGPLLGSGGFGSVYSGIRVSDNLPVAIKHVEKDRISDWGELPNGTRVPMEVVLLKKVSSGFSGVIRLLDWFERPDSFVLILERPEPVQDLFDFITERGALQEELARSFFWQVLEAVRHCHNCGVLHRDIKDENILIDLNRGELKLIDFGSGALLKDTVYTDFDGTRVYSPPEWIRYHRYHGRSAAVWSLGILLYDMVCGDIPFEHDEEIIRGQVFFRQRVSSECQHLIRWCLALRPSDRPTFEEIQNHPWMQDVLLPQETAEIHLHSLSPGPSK
Chain of GSK3β (P49841 whole entry, species assumed): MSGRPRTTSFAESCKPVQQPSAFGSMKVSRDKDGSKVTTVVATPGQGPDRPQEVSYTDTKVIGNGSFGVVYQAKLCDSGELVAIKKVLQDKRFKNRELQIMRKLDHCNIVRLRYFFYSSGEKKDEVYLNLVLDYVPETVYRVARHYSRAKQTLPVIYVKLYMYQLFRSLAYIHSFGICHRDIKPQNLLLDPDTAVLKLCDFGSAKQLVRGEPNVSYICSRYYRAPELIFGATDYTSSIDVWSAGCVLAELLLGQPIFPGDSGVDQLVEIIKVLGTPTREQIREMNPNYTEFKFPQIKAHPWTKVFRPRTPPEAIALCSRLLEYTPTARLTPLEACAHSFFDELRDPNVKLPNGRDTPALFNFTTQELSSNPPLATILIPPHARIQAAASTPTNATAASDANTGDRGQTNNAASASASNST

Compound	IC50 (PIM1) [nM]	IC50 (PIM2) [nM]	IC50 (PIM3) [nM]	IC50 (GSK3β) [nM]	EC50 [1] [nM]
CC1C(c2ccncc2NC(=O)c2ccc(F)c(-c3c(F)cccc3F)n2)OC(C)[C@H](O)C1O (stereo in doubt) [Example 66, 6-(2,6-difluorophenyl)-N-(4-((2S,3R,4S,5R,6S)-4,5-dihydroxy-3,6-dimethyltetrahydro-2H-pyran-2-yl)pyridin-3-yl)-5-fluoropicolinamide]	1	99	8	689	2200
CC1C(c2ccncc2NC(=O)c2ccc(F)c(-c3c(F)cccc3F)n2)OC(C)[C@@H](O)C1O (stereo in doubt) [Example 67, 6-(2,6-difluorophenyl)-N-(4-((2R,3S,4R,5S,6R)-4,5-dihydroxy-3,6-dimethyltetrahydro-2H-pyran-2-yl)pyridin-3-yl)-5-fluoropicolinamide]	4	300	22	984	> 10000
C[C@H]1O[C@@H](c2ccncc2NC(=O)c2csc(-c3c(F)cccc3F)n2)[C@H](F)[C@@H](O)[C@]1(C)O (stereo in doubt) [Example 68, 2-(2,6-difluorophenyl)-N-(4-((2S,3R,4S,5S,6R)-3-fluoro-4,5-dihydroxy-5,6-dimethyltetrahydro-2H-pyran-2-yl)pyridin-3-yl)thiazole-4-carboxamide]	6	3390	89	1070	6000
C[C@H]1O[C@@H](c2ccncc2NC(=O)c2ccc(F)c(-c3c(F)cccc3F)n2)[C@H](F)[C@@H](O)[C@]1(C)O (stereo in doubt) [Example 69, 6-(2,6-difluorophenyl)-5-fluoro-N-(4-((2S,3R,4S,5S,6R)-3-fluoro-4,5-dihydroxy-5,6-dimethyltetrahydro-2H-pyran-2-yl)pyridin-3-yl)picolinamide]	4	497	53	1800	4000
C[C@@H]1O[C@H](c2ccncc2NC(=O)c2csc(-c3c(F)cccc3F)n2)[C@@H](F)[C@H](O)[C@@]1(C)O (stereo in doubt) [Example 70, 2-(2,6-difluorophenyl)-N-(4-((2R,3S,4R,5R,6S)-3-fluoro-4,5-dihydroxy-5,6-dimethyltetrahydro-2H-pyran-2-yl)pyridin-3-yl)thiazole-4-carboxamide]	1	323	19	331	> 10000

The next lines start with the values.

IC50 (PIM1) [nM]	IC50 (PIM2) [nM]	IC50 (PIM3) [nM]	IC50 (GSK3β) [nM]	EC50 [1] [nM]	Compound
50	756	236	4890	6400	CC[C@]1(O)[C@H](O)C[C@H](c2ccncc2NC(=O)c2ccc(F)c(-c3c(F)cccc3F)n2)O[C@@H]1C (stereo in doubt) [Example 77, 6-(2,6-difluorophenyl)-N-(4-((2R,4R,5S,6R)-5-ethyl-4,5-dihydroxy-6-methyltetrahydro-2H-pyran-2-yl)pyridin-3-yl)-5-fluoropicolinamide]
31	720	44	854	> 10000	C[C@H]1O[C@@H](c2ccncc2NC(=O)c2ccc(F)c(-c3c(F)cccc3F)n2)[C@H](O)[C@@H](O)[C@]1(C)O (stereo in doubt) [Example 81, 6-(2,6-difluorophenyl)-5-fluoro-N-(4-((2S,3R,4R,5S,6R)-3,4,5-trihydroxy-5,6-dimethyltetrahydro-2H-pyran-2-yl)pyridin-3-yl)picolinamide]
2	36	7	1170	> 10000	C[C@@H]1O[C@H](c2ccncc2NC(=O)c2ccc(F)c(-c3c(F)cccc3F)n2)[C@@H](O)[C@H](O)[C@@]1(C)O (stereo in doubt) [Example 82, 6-(2,6-difluorophenyl)-5-fluoro-N-(4-((2R,3S,4S,5R,6S)-3,4,5-trihydroxy-5,6-dimethyltetrahydro-2H-pyran-2-yl)pyridin-3-yl)picolinamide]
1	246	9	11	4200	C[C@H]1[C@H](C)O[C@H](c2ccncc2NC(=O)c2csc(-c3c(F)cccc3F)n2)C[C@@H]1O (stereo in doubt) [Example 94, 2-(2,6-difluorophenyl)-N-(4-((2S,4S,5R,6S)-4-hydroxy-5,6-dimethyltetrahydro-2H-pyran-2-yl)pyridin-3-yl)thiazole-4-carboxamide]
8	2170	80	32	> 10000	C[C@H]1[C@H](O)C[C@H](c2ccncc2NC(=O)c2csc(-c3c(F)cccc3F)n2)O[C@@H]1C (stereo in doubt) [Example 95, 2-(2,6-difluorophenyl)-N-(4-((2R,4R,5S,6R)-4-hydroxy-5,6-dimethyltetrahydro-2H-pyran-2-yl)pyridin-3-yl)thiazole-4-carboxamide]
1	16	3	141	3900	C[C@H]1[C@H](C)O[C@H](c2ccncc2NC(=O)c2ccc(F)c(-c3c(F)cccc3F)n2)C[C@@H]1O (stereo in doubt) [Example 96, 6-(2,6-difluorophenyl)-5-fluoro-N-(4-((2S,4S,5R,6S)-4-hydroxy-5,6-dimethyltetrahydro-2H-pyran-2-yl)pyridin-3-yl)picolinamide]
5	263	37	313	> 10000	C[C@H]1[C@H](O)C[C@H](c2ccncc2NC(=O)c2ccc(F)c(-c3c(F)cccc3F)n2)O[C@@H]1C (stereo in doubt) [Example 97, 6-(2,6-difluorophenyl)-5-fluoro-N-(4-((2R,4R,5S,6R)-4-hydroxy-5,6-dimethyltetrahydro-2H-pyran-2-yl)pyridin-3-yl)picolinamide]

Reference: patent US20130109682A1, “CYCLIC ETHER COMPOUNDS USEFUL AS KINASE INHIBITORS” (NOVARTIS AG, priority 2010, published 2013)
